Measurements: patent publication US9920069B2, “Compounds for treatment of fluoroquinolone-resistant bacteria” (The Board of Trustees of the University of Illinois, priority 2014, dated 2018)
Converted amounts (≈) assume the structure as drawn. Marks after values point to notes of the source that are not given here.

Tests used:
Enterococcus ATCC 29212 = assay: organism not typed; assay type: cell-based, E. faecalis
Enterococcus ATCC 19433 = assay: organism not typed; assay type: cell-based, E. faecalis
A. baumannii KB349 = details: starred: previously determined; cited from earlier work
[1] = system: low level CIP resistant strains of S. aureus ATCC 29213 (ParC mutation); assay: microbe, parasite or virus in culture; assay type: cell-based; details: Staphylococcus aureus, ATCC29213
A. baumannii KB304 = details: starred: previously determined; cited from earlier work
[2] = system: S. aureus 29213 (WT GyrA and WT ParC); assay: microbe, parasite or virus in culture; assay type: cell-based; details: Staphylococcus aureus; WT GyrA and WT ParC; read-out: MIC against S. aureus 29213
Experimental: Susceptibility testing was performed in triplicate using the microdilution broth method as outlined by the Clinical and Laboratory Standards Institute CLSI^52. MH broth was used.

physchem [3] = details: organic solvent or mixture, thermodynamic from solid
physchem [4] = details: pH 7.4 PBS; three replicates ± SEM
Experimental: Enough PBS was added to make a 1 mg/mL solution. Compounds were then assessed by LC-MS and compared to a calibration curve to determine the solubility. […] Data shown is from three independent replicates±SEM. […] Between DMSO additions, the vial was vortexed and sonicated.
The compound was vortexed for ˜30 seconds before being placed into a bath sonicator (Cole Parmer, ultrasonic cleaner) for 1 h. […] The tubes were vortexed again for 30 s before being centrifuged at maximum speed (13,000×g) for 10 minutes. The supernatant was then filtered through a 0.22 μm syringe filter (Millipore Millex MP). […] Three independent replicates of each compound were performed. A calibration curve for each compound was generated from 1-400 μM by dissolving the compound in DMSO and making dilutions of the stock in DMSO. […] The concentration of the samples was calculated based on the calibration curves.

## O=C(O)c1cn(C2CC2)c2cc(N3CCNCC3)c(F)cc2c1=O [CIP, ciprofloxacin, reference compound]
Enterococcus ATCC 29212
  MIC: 0.5 to 2 µg/mL (≈ 1.51 to 6.04 µM)
Enterococcus ATCC 29212; ATCC 29212
  CIP (S/I/R): S (sensitive (S) if it had an MIC≤4 μg mL^−1)
Enterococcus ATCC 19433
  MIC: 2 µg/mL (≈ 6.04 µM)
Enterococcus ATCC 19433; ATCC 19433
  CIP (S/I/R): S (sensitive (S) if it had an MIC≤4 μg mL^−1)
A. baumannii KB349
  CIP MIC: >32* μg mL^−1
[1]
  MIC: 4 to 8 µg/mL (≈ 12.1 to 24.1 µM)
A. baumannii KB304
  CIP MIC: 24* ^ μg mL^−1

## CCc1cc(=O)n(C)c2c3c4c(cc12)c(C)cc(=O)n4CO3 [Compound 4]
[2]
  MIC: 8 µg/mL (≈ 27 µM)
Physchem [3]
  solubility: 4.7 mM (≈ 1390 µg/mL)
Physchem [4]
  Solubility in pH 7.4 PBS: 53 μM

## Cc1cc(=O)n(C)c2c3c4c(cc12)c(C)cc(=O)n4C(C)O3 (stereo not shown) [Compound 5]
[2]
  MIC: 4 µg/mL (≈ 13.5 µM)
Physchem [3]
  solubility: 3.4 mM (≈ 1010 µg/mL)

## CCCc1cc(=O)n2c3c(c4c(cc13)c(C)cc(=O)n4C)OC2 [Compound 6]
[2]
  MIC: 16 µg/mL (≈ 51.6 µM)
Physchem [3]
  solubility: 6.4 mM (≈ 1990 µg/mL)

## CCCc1cc(=O)n(C)c2c3c4c(cc12)c(C)cc(=O)n4CO3 [Compound 7]
[2]
  MIC: 16 µg/mL (≈ 51.6 µM)
Physchem [3]
  solubility: 5.8 mM (≈ 1800 µg/mL)

## CCCCCn1c(=O)cc(C)c2cc3c(C)cc(=O)n4c3c(c21)OC4 [Compound 9]
[2]
  MIC: 32 µg/mL (≈ 94.6 µM)
Physchem [3]
  solubility: 26.9 mM (≈ 9100 µg/mL)

## CCCCCCn1c(=O)cc(C)c2cc3c(C)cc(=O)n4c3c(c21)OC4 [Compound 10]
[2]
  MIC: > 64 µg/mL
Physchem [3]
  solubility: 56.7 mM (≈ 20000 µg/mL)

## Cc1cc(=O)n2c3c(c4c(cc13)c(C)cc(=O)n4CC(C)C)OC2 [Compound 11]
[2]
  MIC: > 32 µg/mL
Physchem [3]
  solubility: 7.1 mM (≈ 2300 µg/mL)
